Assay results taken from patent publication US20100197625A1, “SYNTHETIC LIPOPHILIC INOSITOL GLYCANS FOR TREATMENT OF CANCER AND GLUCOSE-METABOLISM DISORDERS” (priority 2006, published 2010).
Entries after “also recorded” stand apart in the source; their conditions may differ.

Assays:
[1] = system: C57B/6 mice on normal diets; test: Intravenous administration of IG1, mice on normal diets; format: in vivo
Protocol: (§1) Male C57BL/6 mice were housed individually and given free access to a standard diet (65% carbohydrate, 4% fat, and 24% protein) or a high-fat diet (Quick Fat; 60.2% carbohydrate, 15.3% fat, and 24.5% protein; Clea Japan, Tokyo, Japan), starting at 5 weeks of age, for 5 weeks. Db/db mice also were housed individually and given free access to a standard diet. C57BL/6 mice at 5 weeks of age, were received a single dose of 75 μg/g body weight streptozotoxin (STZ). 7 days after injections, the mice, whose fasting plasma glucose concentrations were over 400 mg/dl, were used as STZ-diabetic mice. […]
(§2) Frozen livers were homogenized, and triglycerides were extracted with CHCl3:CH3OH (2:1, vol:vol), dried and resuspended in 2-propanol (17). Triglyceride contents were measured using Lipidos liquid (TOYOBO, Osaka, Japan). […] Glycogen content was determined by the phenol-sulfuric acid spectrophotometric method at 490 nm (18) and expressed as micrograms of glycogen per milligram of liver.
(§3) Blood glucose was assayed with Glucose Ace (Sanwa Kagaku Kenkyusho, Nagoya, Japan). Serum insulin and leptin were determined with ELISA kits (Morinaga Institute of Biological Science, Yokohama, Japan). Serum adiponectin and tumor necrosis factor-α (TNF-α) concentrations were measured with an ELISA kit (Ohtsuka Pharmaceutical, Tokyo, Japan) and a TNF-α assay kit (Amersham Biosciences, Uppsala, Sweden), respectively. […]

[2] = system: C57B/6 mice on normal diets; test: Intraperitoneal IG1 for 7 days, mice on normal diets; format: in vivo; settings: intraperitoneal for every 7 days, data not shown
Protocol: as §1, §2, §3

[3] = system: streptozotocin (STZ)-diabetic mice; test: Intravenous administration of IG1, STZ-diabetic mice; format: in vivo
Protocol: as §1, §2, §3

[4] = system: murine Ehrlich ascites cancer cells; test: Cell proliferation / cell death assay, Ehrlich ascites cancer cells; format: cell-based; settings: 10-100 μM
Protocol: (§4) Human pancreatic cancer cell lines (Panc-1, MiaPaca2, BXPC3, Aspc 1), human hepatoma cell line (HuH7), human gastric cancer cell lines (AGS, MKN45), human colon cancer cell line (CoCM-1), human mammary cancer cell line (MCF-7), human neuroblastoma (SH-SY5Y), human prostate cancer cells (PC3), and murine Ehrlich ascites cancer cells and mouse 3T3-L1 fibroblasts were obtained from American Type Culture Collection (Rockville, Md., USA). The cancer cells were cultured in RPMI 1640 containing 10% fetal calf serum. Cultures were maintained at 37° C. in a humidified atmosphere of 5% CO2.
(§5) Cell proliferation assays were performed with the CellTiter 96 AQueous One Solution Cell Proliferation Assay kit according to the manufacturer's instructions (Promega, Madison, Wis., USA). Briefly, 5×10^3 cells/well in medium were placed onto 96-well plates. IGs were added to cellular cultures at final concentrations of 0, 1, 10, and 100 μM. Cultures were incubated for 3 days or 7 days and then added to 20 μL/well of CellTiter 96 AQueous One Solution Reagent, which contains a tetrazolium compound, 3-(4,5-dimethylthiazol-2-yl)-5-(3-carboxymethoxyphenyl)-2-(4-sulfophenyl)-2H-tetrazolium, an inner salt; MTS was added to the culture medium. After incubating the plate for 1 h in a CO2 incubator, absorbance at 490 nm was recorded with a 96-well plate reader.

Panc-1 cells = test: Cell proliferation / cell death assay, Panc-1; format: cell-based, human
Protocol: as §4
as §5, with “Cultures were incubated for 3 days or 7 days and then added to 20 μL/well” left out

3T3-L1 adipocytes = test: Lipogenesis in 3T3-L1 adipocytes; format: cell-based, mouse; settings: 10-1000 μM
Protocol: 3T3-L1 fibroblasts were maintained in Dulbecco's modified Eagle's medium (DMEM) with 25 mM glucose plus 10% fetal bovine serum (FBS). Following 2 days at confluence, differentiation was initiated by the addition of DMEM containing 10% FBS, 167 nM insulin, […] dexamethasone, and 0.5 mM isobutylmethylxanthine. Three days later, the medium was replaced with DMEM plus 10% FBS and 167 nM insulin. After 2 more days, the medium was switched to DMEM plus 10% fetal bovine serum. Adipocytes were used 6-14 days after completion of the differentiation protocol, when >90% of the cells expressed the adipocyte phenotype. Prior to experiments, cells were washed two times with DMEM medium containing 5 mM glucose, 0.2% bovine serum albumin, 25 mM Hepes (pH 7.4), 100 units/ml penicillin, 100 units/ml streptomycin and 0.29 mg/ml glutamine, and were incubated in the same medium for 2 h. Glycogen and lipid synthesis were measured in 24-well dishes. […] The lipids were then extracted overnight with 5 ml of Betafluor (National Diagnostics), and glucose incorporation into lipid was measured by scintillation counting. 400 μl of the cell suspension was added to 600 μl of 50% KOH, and glycogen was precipitated and radioactivity was counted by a liquid scintillation counter

Question: For `CCCCCCCCCCCCCCCC(=O)O[C@@H]1C(O)C(O)[C@H](O)C(O[C@H]2OC(CO)[C@@H](O)[C@H](O)C2N)C1O` (stereo in doubt) [IG1, 2-Amino-2-deoxy-α-D-glucopyranosyl-(1→6)-2-palmitoyl-D-myo-inositol], which plasma glucose concentrations ([1]; intravenous, normal mice) is on record?
Answer: reduced plasma glucose concentrations

Question: What about the “hepatic and muscular glycogen synthesis” value ([1]; mice on normal diets, data not shown) of the same compound?
Answer: increases hepatic and muscular glycogen synthesis

Question: What about the glucose tolerance [2] of the same compound?
Answer: improves glucose tolerance

Question: And the “hepatic and muscular glycogen synthesis” value [2]?
Answer: increases hepatic and muscular glycogen synthesis

Question: What about the “hepatic and muscular glycogen synthesis” value ([3]; STZ-diabetic mice, data not shown) of the same compound?
Answer: increases hepatic and muscular glycogen synthesis

Question: And the plasma glucose concentrations ([3]; intravenous, 0.3 mg per mice, 120-300 min after administration)?
Answer: significantly reduced plasma glucose concentrations

Question: And the “rapid cancer cell death” value [4]?
Answer: rapid cancer cell death was demonstrated

Question: What about the cell death (Panc-1 cells; Panc-1, 1 hour after addition, 10-100 μM) of the same compound?
Answer: induced very rapid cell death; also recorded: induced rapid cell death

Question: What about the cell death (Panc-1 cells; Panc-1, after 24 hours) of the same compound?
Answer: induced rapid cell death

Question: And the cell death (Panc-1 cells; Panc-1, after 3 days (72 hours))?
Answer: induced rapid cell death

Question: What about the lipogenesis (3T3-L1 adipocytes) of the same compound?
Answer: stimulates
